This note sets out measurements from patent US20240209028A1, “CNP COMPOUNDS” (priority 2022, published 2024).

A short description of this data set: Accelerated chemical stability (RP-UPLC recovery and LCMS degradation pattern, 37° C.). The data set is classed as physicochemical. Set-up: Isomers TZ / Isomers 2 W / Loss of 18 amu TZ / Loss of 18 amu 2 W / Fragments TZ / Fragments 2 W / Fragments 1 W / Fragments 3 W / Fragments 4 W / Fragments 5 W / Fragments 6 W / Others 1 W / Others 3 W / Others 4 W / Others 5 W / Others 6 W / Isomers 1 W / Isomers 3 W / Isomers 4 W / Isomers 5 W / Isomers 6 W / Loss of 18 amu 1 W / Loss of 18 amu 3 W / Loss of 18 amu 4 W / Loss of 18 amu 5 W / Loss of 18 amu 6 W: unit not given here. Particulars: LCMS, 250 mM glycerol; for Fragments 2 W / Isomers 2 W / Loss of 18 amu 2 W / Others 2 W: 2 weeks at 37° C.; for Fragments TZ / Isomers TZ / Loss of 18 amu TZ / Others TZ: time zero. The procedure:
In order to determine the chemical stability of CNP compounds in formulation, samples of CNP compounds in buffer were exposed to accelerated chemical degradation by heating. The stability of a given peptide was assessed by measuring recovery of intact peptide by quantification by RP-UPLC. To assess the chemical degradation pattern samples were also analysed by LC-MS.
Sample preparation: Samples for the 2 week study were prepared according to the principles described in Example 5.
Samples for the 6 week study were prepared by dissolving lyophilized peptide in buffer (8 mM phosphate, 250 mM glycerol, pH 7.4) to a nominal peptide concentration of 5000 nmol/ml followed by pH adjustment with 0.1 N HCl to pH 6.5.
Incubation: For the 2 week study a time-zero (TZ) sample was pulled and stored at −18° C. and the remaining volume was incubated at 37° C. Samples were pulled and stored at −18° C. after 2 weeks of incubation. Frozen samples were thawed, diluted to about 200 nmol/mL and the extent of chemical degradation was determined using LCMS as described.
For the 6 week study a time-zero (TZ) sample was pulled and stored at −18° C. and the remaining volume was incubated at 37° C. Samples were pulled on a weekly basis and stored at −18° C. until the last sampling time point at 6 weeks. Frozen samples were thawed, diluted to about 200 nmol/mL and the extent of chemical degradation was determined using RP-UPLC and LCMS as described.
Analysis of peptide recovery by RP-UPLC: The RP-UPLC method was performed on a Waters ACQUITY H-CLASS UPLC system fitted with a PDA detector. Separation was carried out on an ACQUITY UPLC BEH C8 Column (130 Å, 1.7 μm, 2.1 mm×150 mm) operating at a column temperature of 50° C. with eluent A (19.59 mM NH4H2PO4 41.71 mM (NH4)2HPO4, pH 6.5 and MeCN 9:1 v:v) and eluent B (80% MeCN in water). UV-detection was carried out at 214 nm. The analysis was performed by injection of 3 μL of sample onto the column which was eluted with a 1-step linear gradient of eluents A and B from 27 to 30% B over 20 minutes followed by a wash at 95% B over 2 minutes followed by a re-equilibration phase for 7 minutes at a constant flow rate of 0.3 mL/min. This yielded an analysis time of 30 minutes per sample. The area of the peak corresponding to intact CNP compound was given on a percentage scale relative to the total peptide peak area.
Analysis of chemical degradation patterns by LCMS: Samples were analysed on a […] UPLC from Thermo Scientific, using a Waters Acquity C18 reversed-phase column, 300 Å, […] particles 1 mm×150 mm. The compounds were separated by a linear gradient of solvent B from 5% to 55% over 48 minutes, using solvent A: water, 0.1% formic acid with 0.02% TFA and solvent B: acetonitrile, 0.1% formic acid with 0.02% TFA. Mass spectra were acquired by a Q Exactive Plus hybrid Quadrupole-Orbitrap mass spectrometer, BioPharma option (Thermo Scientific) interfaced with H-ESI II ion source. Data acquisitions were performed with a m/z 500 to 2000 scan range and a resolution of 30000.
The data list was aggregated into a summed table of the compounds. The table headers were defined as follows: […]
Results: The results from LCMS analysis of a 2 week accelerated degradation study on several CNP compounds of the present invention are summarised in Table 12. The results from RP-UPLC and LCMS analysis of a 6 week accelerated degradation study on CNP compound 9482 (Chem. 137) is summarised in Table 13 and Table 14 respectively.

Starred links: 1 amine or outer side, 2 acyl side, 3 side chain; linkers in the order of their positions; H or OH if unused. Positions of bridges follow the written chain, without caps; N, C: chain ends. Residues, ends and D or L forms follow the SMILES beside them. *: point of attachment. C18 diacid = O=C(O)CCCCCCCCCCCCCCCCC(=O)*; γGlu = O=C(O)[C@H](CCC(=O)[*:2])N[*:1]; AEEA = NCCOCCOCC(=O)O

As to `CC[C@H](C)[C@@H]1NC(=O)[C@H](CCCNC(=N)N)NC(=O)[C@H](CC(=O)O)NC(=O)[C@H](CC(C)C)NC(=O)[C@@H]2CCCN2C(=O)[C@H](CC(C)C)NC(=O)CNC(=O)[C@H](Cc2ccccc2)NC(=O)[C@@H](NC(=O)CNC(=O)[C@H](CCC(N)=O)NC(=O)[C@H](CO)NC(=O)CNC(=O)CNC(=O)[C@H](CCCCN)NC(=O)[C@H](CCCCN)NC(=O)[C@H](CCC(N)=O)NC(=O)[C@H](C)NC(=O)CNC(=O)[C@H](CCCCN)NC(=O)[C@H](Cc2ccc(O)cc2)NC(=O)COCCOCCNC(=O)COCCOCCNC(=O)COCCOCCNC(=O)COCCOCCNC(=O)CC[C@H](NC(=O)CC[C@H](NC(=O)CCCCCCCCCCCCCCCCC(=O)O)C(=O)O)C(=O)O)CSSC[C@@H](C(=O)O)NC(=O)CNC(=O)[C@H](CC(C)C)NC(=O)CNC(=O)[C@H](CO)NC(=O)[C@H](CC(C)C)NC(=O)[C@H](CO)NC(=O)CNC1=O` [Compound 9435] ({C18 diacid-γGlu-γGlu-AEEA-AEEA-AEEA-AEEA}-YKGAQKKGGSQGCFGLPLDRIGSLSGLGC-OH; disulfide 13-29), for the setting “5 mM sodium acetate, pH 4”, the “Fragments 2 W” value came out at 0, the “Isomers 2 W” value is 0.6, the “Loss of 18 amu 2 W” value is recorded as 4.1 and the Others 2 W is 0%. Where the note is “5 mM sodium acetate, pH 4”, the “Fragments TZ” value was found to be 0, the “Isomers TZ” value is listed as 0, the “Loss of 18 amu TZ” value is recorded as 0 and the Others TZ was 0%.

In the case of `CC[C@H](C)[C@@H]1NC(=O)[C@H](CCCNC(=N)N)NC(=O)[C@H](CC(=O)O)NC(=O)[C@H](CC(C)C)NC(=O)[C@@H]2CCCN2C(=O)[C@H](CC(C)C)NC(=O)CNC(=O)[C@H](Cc2ccccc2)NC(=O)[C@@H](NC(=O)CNC(=O)[C@H](CCC(N)=O)NC(=O)[C@H](CO)NC(=O)[C@H](CC(C)C)NC(=O)CNC(=O)[C@H](CCCCN)NC(=O)[C@H](CCCCN)NC(=O)[C@H](CCC(N)=O)NC(=O)[C@H](C)NC(=O)CNC(=O)[C@H](CCCCN)NC(=O)[C@H](Cc2ccc(O)cc2)NC(=O)COCCOCCNC(=O)COCCOCCNC(=O)COCCOCCNC(=O)COCCOCCNC(=O)CC[C@H](NC(=O)CC[C@H](NC(=O)CC[C@H](NC(=O)CCCCCCCCCCCCCCCCC(=O)O)C(=O)O)C(=O)O)C(=O)O)CSSC[C@@H](C(=O)O)NC(=O)CNC(=O)[C@H](CC(C)C)NC(=O)CNC(=O)[C@H](CO)NC(=O)[C@H](CC(C)C)NC(=O)[C@H](CO)NC(=O)CNC1=O` [Compound 9480] ({C18 diacid-γGlu-γGlu-γGlu-AEEA-AEEA-AEEA-AEEA}-YKGAQKKGLSQGCFGLPLDRIGSLSGLGC-OH; disulfide 13-29), where the note is “8 mM sodium phosphate, pH 6.5”, the “Fragments 2 W” value is given as 0, the “Isomers 2 W” value is 0, the “Loss of 18 amu 2 W” value is 0 and the Others 2 W was 0.6%. Under “8 mM sodium phosphate, pH 6.5”, the “Fragments TZ” value was 0, the “Isomers TZ” value came to 0, the “Loss of 18 amu TZ” value worked out at 0 and the Others TZ stood at 0%.

With `CC[C@H](C)[C@@H]1NC(=O)[C@H](CCCNC(=N)N)NC(=O)[C@H](CC(=O)O)NC(=O)[C@H](CC(C)C)NC(=O)[C@@H]2CCCN2C(=O)[C@H](CC(C)C)NC(=O)CNC(=O)[C@H](Cc2ccccc2)NC(=O)[C@@H](NC(=O)CNC(=O)[C@H](CO)NC(=O)[C@H](CO)NC(=O)[C@H](CC(C)C)NC(=O)CNC(=O)[C@H](CCCCN)NC(=O)[C@H](CCCCN)NC(=O)[C@H](CCC(N)=O)NC(=O)[C@H](C)NC(=O)CNC(=O)[C@H](CCCCN)NC(=O)[C@H](Cc2ccc(O)cc2)NC(=O)[C@H](CCCCN)NC(=O)[C@H](CCCNC(=N)N)NC(=O)[C@H](C)NC(=O)[C@H](CCC(N)=O)NC(=O)[C@@H]2CCCN2C(=O)[C@H](Cc2c[nH]cn2)NC(=O)[C@H](CCC(=O)O)NC(=O)[C@H](CCC(N)=O)NC(=O)CC[C@H](NC(=O)CC[C@H](NC(=O)CC[C@H](NC(=O)CC[C@H](NC(=O)CC[C@H](NC(=O)CCCCCCCCCCCCCCCCC(=O)O)C(=O)O)C(=O)O)C(=O)O)C(=O)O)C(=O)O)CSSC[C@@H](C(=O)O)NC(=O)CNC(=O)[C@H](CC(C)C)NC(=O)CNC(=O)[C@H](CO)NC(=O)[C@H](CC(C)C)NC(=O)[C@H](CO)NC(=O)CNC1=O` [Compound 9482] ({C18 diacid-γGlu-γGlu-γGlu-γGlu-γGlu}-QEHPQARKYKGAQKKGLSSGCFGLPLDRIGSLSGLGC-OH; disulfide 21-37), under “8 mM sodium phosphate, pH 6.5”, the “Fragments 2 W” value came to 0, the “Isomers 2 W” value is 0, the “Loss of 18 amu 2 W” value was 0 and the Others 2 W is 0.3%. Further, where the note is “8 mM sodium phosphate, pH 6.5”, the “Fragments TZ” value stood at 0, the “Isomers TZ” value is 0, the “Loss of 18 amu TZ” value came to 0 and the Others TZ turned out to be 0%.

As for `CC[C@H](C)[C@@H]1NC(=O)[C@H](CCCNC(=N)N)NC(=O)[C@H](CC(=O)O)NC(=O)[C@H](CC(C)C)NC(=O)[C@@H]2CCCN2C(=O)[C@H](CC(C)C)NC(=O)CNC(=O)[C@H](Cc2ccccc2)NC(=O)[C@@H](NC(=O)CNC(=O)[C@H](CCC(N)=O)NC(=O)[C@H](CO)NC(=O)[C@H](CC(C)C)NC(=O)CNC(=O)[C@H](CCCCN)NC(=O)[C@H](CCCCN)NC(=O)[C@H](CCC(N)=O)NC(=O)[C@H](C)NC(=O)CNC(=O)[C@H](CCCCN)NC(=O)[C@H](Cc2ccc(O)cc2)NC(=O)[C@H](CCCCN)NC(=O)[C@H](CCCNC(=N)N)NC(=O)[C@H](C)NC(=O)COCCOCCNC(=O)COCCOCCNC(=O)COCCOCCNC(=O)COCCOCCNC(=O)CC[C@H](NC(=O)CC[C@H](NC(=O)CC[C@H](NC(=O)CC[C@H](NC(=O)CC[C@H](NC(=O)CCCCCCCCCCCCCCCCC(=O)O)C(=O)O)C(=O)O)C(=O)O)C(=O)O)C(=O)O)CSSC[C@@H](C(=O)O)NC(=O)CNC(=O)[C@H](CC(C)C)NC(=O)CNC(=O)[C@H](CO)NC(=O)[C@H](CC(C)C)NC(=O)[C@H](CO)NC(=O)CNC1=O` [Compound 9407] ({C18 diacid-γGlu-γGlu-γGlu-γGlu-γGlu-AEEA-AEEA-AEEA-AEEA}-ARKYKGAQKKGLSQGCFGLPLDRIGSLSGLGC-OH; disulfide 16-32), for the setting “8 mM sodium phosphate, pH 6.5”, the “Fragments 2 W” value is given as 0.7, the “Isomers 2 W” value was determined as 1.1, the “Loss of 18 amu 2 W” value stood at 0 and the Others 2 W came out at 0.3%. In addition, under “8 mM sodium phosphate, pH 6.5”, the “Fragments TZ” value is on record as 0, the “Isomers TZ” value was 0, the “Loss of 18 amu TZ” value was determined as 0 and the Others TZ is 0.1%.
